According to article PMC10301922, “Anti-Oxidant, Anti-Mutagenic Activity and Safety Evaluation of Antrocin” (Toxics, 2023):
Where two headings read alike, the source gives them in different places.

Assays:
[1] = test system: Sprague Dawley rats; test: 28-day oral toxicity test: absolute organ weight
[2] = test system: Salmonella typhimurium TA1535; test: Antimutagenicity test, TA1535
[3] = test system: lung cancer tumor xenografts; set-up: method as in PMID 23880305; settings: 5 mg/kg/day intraperitoneal; cited from earlier work
[4] = test system: Sprague Dawley rats; test: 28-day oral toxicity test: clinical signs, mortality, overall result
[5] = test system: CHO-K1 cells
Description: A chromosomal aberration test was performed to evaluate the potential for antrocin to induce structural chromosomal abnormalities in Chinese hamster ovary cells (CHO-K1 cells). The test followed the protocol in Genetic Toxicology Testing: A Laboratory Manual. CHO-K1 cells were obtained from the Bioresource Collection and Research Center (BCRC), and were cultured in Ham F-12 medium with 10% fetal bovine serum and 0.1% Penicillin–Streptomycin at 5% CO2 in a 37 °C incubator. […] Three experimental conditions were conducted: 3 h with and without S9 (short term), and 19 h without S9 (long term). […] CHO-K1 cells were cultured in 25T flasks, incubated with samples for 3 or 19 h with and without S9, and harvested at the time of 1.5 cell cycle lengths (about 21 h). Two hours before harvesting, 100 μL colcemid (10 μg/mL) was added to disrupt cell mitosis. Collected cells were then treated with 0.6% KCl solution and fixed with acetic acid–methanol (1:3) solution. After fixation, cells were stained with Diff-Quik on a glass slide. A total of 300 cells in metaphase per group were observed, and the number of chromosomal aberrations was recorded. The chromosomal aberration rate (%) was calculated using the following formula: (number of cells with aberrations/total number of cells examined) × 100. A Student’s t-test was used for statistical analysis, and a significant increase (p < 0.05) compared to the negative control indicated a positive response.

[6] = 28-day oral toxicity test: body weight; format: in vivo
[7] = female rats, 7.5 mg/kg oral 28 d
[8] = female rats, 37.5 mg/kg oral 28 d
[9] = male rats, 37.5 mg/kg oral 28 d
[10] = TA1535, with S9, mutagen 2-AA 25 μg/plate, antrocin 0.025 mg/plate
[11] = TA1535, with S9, mutagen 2-AA 25 μg/plate, antrocin 0.05 mg/plate
[12] = TA1535, with S9, mutagen 2-AA 25 μg/plate, antrocin […]
[13] = TA1535, without S9, mutagen sodium azide 5 μg/plate, antrocin 0.025 mg/plate
[14] = TA1535, without S9, mutagen sodium azide 5 μg/plate, antrocin 0.05 mg/plate
[15] = TA1535, without S9, mutagen sodium azide 5 μg/plate, antrocin […]

C=C1CC[C@H]2C(C)(C)CCC[C@@]23C(=O)OC[C@@H]13 [Antrocin, (-)-Antrocin]
Testis/Ovary ([1]; female rats (ovary), 7.5 mg/kg oral 28 d): 0.07 ± 0.02 g | Testis/Ovary ([1]; female rats (ovary), 37.5 mg/kg oral 28 d): 0.10 ± 0.01 g | Adrenal [1, 7]: 0.05 ± 0.01 g | Brain [1, 7]: 1.9 ± 0.1 g | Heart [1, 7]: 0.9 ± 0.1 g | Kidney [1, 7]: 1.8 ± 0.1 g | Liver [1, 7]: 8.5 ± 0.7 g | Spleen [1, 7]: 0.4 ± 0.1 g | Thymus [1, 7]: 0.4 ± 0.1 g | Adrenal [1, 8]: 0.05 ± 0.01 g | Brain [1, 8]: 2.0 ± 0.1 g | Heart [1, 8]: 1.0 ± 0.1 g | Kidney [1, 8]: 1.7 ± 0.1 g | Liver [1, 8]: 7.8 ± 0.5 g | Spleen [1, 8]: 0.4 ± 0.0 g | Thymus [1, 8]: 0.4 ± 0.1 g | Testis/Ovary ([1]; male rats (testis), 7.5 mg/kg oral 28 d): 3.1 ± 0.2 g | Testis/Ovary ([1]; male rats (testis), 37.5 mg/kg oral 28 d): 3.2 ± 0.2 g | Adrenal ([1]; male rats, 7.5 mg/kg oral 28 d): 0.05 ± 0.01 g | Brain ([1]; male rats, 7.5 mg/kg oral 28 d): 2.1 ± 0.2 g | Heart ([1]; male rats, 7.5 mg/kg oral 28 d): 1.3 ± 0.2 g | Kidney ([1]; male rats, 7.5 mg/kg oral 28 d): 2.8 ± 0.4 g | Liver ([1]; male rats, 7.5 mg/kg oral 28 d): 12.2 ± 1.9 g | Spleen ([1]; male rats, 7.5 mg/kg oral 28 d): 0.6 ± 0.1 g | Thymus ([1]; male rats, 7.5 mg/kg oral 28 d): 0.6 ± 0.1 g | Adrenal [1, 9]: 0.06 ± 0.00 g | Brain [1, 9]: 2.0 ± 0.1 g | Heart [1, 9]: 1.3 ± 0.2 g | Kidney [1, 9]: 2.7 ± 0.2 g | Liver [1, 9]: 11.1 ± 1.2 g | Spleen [1, 9]: 0.6 ± 0.1 g | Thymus [1, 9]: 0.4 ± 0.1 g | Inhibition (%) of mutagenicity [2, 10]: 20.49% | Number of Revertant [2, 10]: 217.3 ± 10.2 Colony/Plate | Inhibition (%) of mutagenicity [2, 11]: 33.25% | Number of Revertant [2, 11]: 184.3 ± 3.8 Colony/Plate | Inhibition (%) of mutagenicity [2, 12]: 8.63% | Number of Revertant [2, 12]: 248.0 ± 9.5 Colony/Plate | Inhibition (%) of mutagenicity [2, 13]: 16.74% | Number of Revertant [2, 13]: 1095.0 ± 28.0 Colony/Plate | Inhibition (%) of mutagenicity [2, 14]: 25.80% | Number of Revertant [2, 14]: 977.0 ± 18.1 Colony/Plate | Inhibition (%) of mutagenicity [2, 15]: 4.40% | Number of Revertant [2, 15]: 1255.7 ± 47.7 Colony/Plate | growth of lung cancer tumor xenografts [3]: significantly suppressed the growth | toxic effects according to hematology, serum chemistry, urine analysis, histopathological examinations ([4]; 7.5 or 37.5 mg/kg oral 28 d): did not produce any toxic effects | highest dosage with no adverse effect ([4]; 28-day oral toxicity test in rats): 37.5 mg/kg/day | chromosomal aberration frequency versus negative control ([5]; 25-100 μg/mL, short-term with S9, short-term without S9, long-term exposure): no significant differences | Frequency of Chromosomal Aberration (%) ([5]; with S9 (3 h), 25 μg/mL): 5.3 ± 1.2% | Total Aberrations ([5]; with S9 (3 h), 25 μg/mL): 16/300 | Frequency of Chromosomal Aberration (%) ([5]; with S9 (3 h), 50 μg/mL): 6.3 ± 2.1% | Total Aberrations ([5]; with S9 (3 h), 50 μg/mL): 19/300 | Frequency of Chromosomal Aberration (%) ([5]; with S9 (3 h), 100 μg/mL): 6.3 ± 2.1% | Total Aberrations ([5]; with S9 (3 h), 100 μg/mL): 19/300 | Frequency of Chromosomal Aberration (%) ([5]; without S9 (3 h), 25 μg/mL): 4.3 ± 3.8% | Total Aberrations ([5]; without S9 (3 h), 25 μg/mL): 13/300 | Frequency of Chromosomal Aberration (%) ([5]; without S9 (3 h), 50 μg/mL): 4.3 ± 2.9% | Total Aberrations ([5]; without S9 (3 h), 50 μg/mL): 13/300 | Frequency of Chromosomal Aberration (%) ([5]; without S9 (3 h), 100 μg/mL): 5.3 ± 2.1% | Total Aberrations ([5]; without S9 (3 h), 100 μg/mL): 16/300 | Frequency of Chromosomal Aberration (%) ([5]; without S9 (19 h), 25 μg/mL): 9.3 ± 1.2% | Total Aberrations ([5]; without S9 (19 h), 25 μg/mL): 28/300 | Frequency of Chromosomal Aberration (%) ([5]; without S9 (19 h), 50 μg/mL): 10.3 ± 2.5% | Total Aberrations ([5]; without S9 (19 h), 50 μg/mL): 31/300 | Frequency of Chromosomal Aberration (%) ([5]; without S9 (19 h), 100 μg/mL): 7.3 ± 1.5% | Total Aberrations ([5]; without S9 (19 h), 100 μg/mL): 22/300 | Body Weight ([6]; female rats, 7.5 mg/kg oral, 0-Day): 163.3 ± 6.3 g | Body Weight ([6]; female rats, 7.5 mg/kg oral, 7-Day): 190.0 ± 9.0 g | Body Weight Gain ([6]; female rats, 7.5 mg/kg oral, 7-Day (7th − 0th)): 26.7 ± 5.6 g | Body Weight ([6]; female rats, 7.5 mg/kg oral, 14-Day): 212.9 ± 12.1 g | Body Weight Gain ([6]; female rats, 7.5 mg/kg oral, 14-Day (14th − 7th)): 22.8 ± 6.0 g | Body Weight ([6]; female rats, 7.5 mg/kg oral, 21-Day): 229.3 ± 14.6 g | Body Weight Gain ([6]; female rats, 7.5 mg/kg oral, 21-Day (21st − 14th)): 16.4 ± 5.2 g | Body Weight ([6]; female rats, 7.5 mg/kg oral, 28-Day): 246.6 ± 21.7 g | Body Weight Gain ([6]; female rats, 7.5 mg/kg oral, 28-Day (28th − 21st)): 17.3 ± 7.9 g | Body Weight ([6]; female rats, 37.5 mg/kg oral, 0-Day): 162.4 ± 6.3 g | Body Weight ([6]; female rats, 37.5 mg/kg oral, 7-Day): 188.5 ± 7.9 g | Body Weight Gain ([6]; female rats, 37.5 mg/kg oral, 7-Day (7th − 0th)): 26.1 ± 4.1 g | Body Weight ([6]; female rats, 37.5 mg/kg oral, 14-Day): 212.0 ± 7.0 g | Body Weight Gain ([6]; female rats, 37.5 mg/kg oral, 14-Day (14th − 7th)): 23.4 ± 3.6 g | Body Weight ([6]; female rats, 37.5 mg/kg oral, 21-Day): 230.1 ± 9.7 g | Body Weight Gain ([6]; female rats, 37.5 mg/kg oral, 21-Day (21st − 14th)): 18.1 ± 5.0 g | Body Weight ([6]; female rats, 37.5 mg/kg oral, 28-Day): 241.7 ± 13.6 g | Body Weight Gain ([6]; female rats, 37.5 mg/kg oral, 28-Day (28th − 21st)): 11.6 ± 6.3 g | Body Weight ([6]; male rats, 7.5 mg/kg oral, 0-Day): 181.4 ± 5.1 g | Body Weight ([6]; male rats, 7.5 mg/kg oral, 7-Day): 237.9 ± 13.6 g | Body Weight Gain ([6]; male rats, 7.5 mg/kg oral, 7-Day (7th − 0th)): 56.5 ± 10.1 g | Body Weight ([6]; male rats, 7.5 mg/kg oral, 14-Day): 295.0 ± 22.5 g | Body Weight Gain ([6]; male rats, 7.5 mg/kg oral, 14-Day (14th − 7th)): 57.1 ± 8.9 g | Body Weight ([6]; male rats, 7.5 mg/kg oral, 21-Day): 349.5 ± 34.3 g | Body Weight Gain ([6]; male rats, 7.5 mg/kg oral, 21-Day (21st − 14th)): 54.5 ± 12.4 g | Body Weight ([6]; male rats, 7.5 mg/kg oral, 28-Day): 389.6 ± 46.6 g | Body Weight Gain ([6]; male rats, 7.5 mg/kg oral, 28-Day (28th − 21st)): 40.1 ± 12.5 g | Body Weight ([6]; male rats, 37.5 mg/kg oral, 0-Day): 183.9 ± 9.0 g | Body Weight ([6]; male rats, 37.5 mg/kg oral, 7-Day): 235.6 ± 9.6 g | Body Weight Gain ([6]; male rats, 37.5 mg/kg oral, 7-Day (7th − 0th)): 51.8 ± 4.7 g | Body Weight ([6]; male rats, 37.5 mg/kg oral, 14-Day): 289.0 ± 17.3 g | Body Weight Gain ([6]; male rats, 37.5 mg/kg oral, 14-Day (14th − 7th)): 53.4 ± 13.9 g | Body Weight ([6]; male rats, 37.5 mg/kg oral, 21-Day): 332.3 ± 21.0 g | Body Weight Gain ([6]; male rats, 37.5 mg/kg oral, 21-Day (21st − 14th)): 43.2 ± 7.7 g | Body Weight ([6]; male rats, 37.5 mg/kg oral, 28-Day): 367.6 ± 30.6 g | Body Weight Gain ([6]; male rats, 37.5 mg/kg oral, 28-Day (28th − 21st)): 35.3 ± 12.9 g
